Tests used:
[1] = system: MTX-induced upregulation of SPM in human peripheral blood; test: Human whole blood incubated with L002 or SB202190, then MTX; plasma SPM by LC-MS/MS; assay type: cell-based; settings: L002 2 μM or SB202190 5 μM, then MTX 100 nM, 37° C., 45 min
Source text: (§1) Plasma was collected by centrifugation and SPM were identified and quantified using LC-MS/MS based lipid mediator profiling (see methods for details). (A) sPLS-DA score plot of identified lipid mediator concentrations (B) Contribution for the top 10 differentially regulated mediators in principle component 1. Results are representative of n=6 volunteers per group with experiments conducted on two distinct occasions. (C-G) Inflammatory arthritis was initiated in mice by the administration of arthritogenic serum on days 0 and 2. […] Disease severity was assessed by measuring (C) disease activity using a 26-point clinical score, (D) joint histology using hematoxylin and eosin staining of knee sections collected 8 days post disease initiation, original magnification=×4 and (E) body weight. (F,G) Eight days post disease initiation joints were collected, (F) leukocytes were liberated from the paws and the number of neutrophils infiltrated into the paw was determined using flow cytometry and fluorescently labelled antibodies. (G) Lipid mediators were extracted and the concentrations of LTB4 were determined using liquid chromatography tandem-mass spectrometry. C, E, F are mean±SEM and G are percentage of vehicle of n=4 mice per group and experiments were conducted on two distinct occasions. Results for D are representative of n=8 mice per group. * p<0.05 vs Vehicle group for C and E using two-way ANOVA, for F one-way ANOVA, for G using one-sample t test. F=femur; m=meniscus; PF=pannus formation; T=tibia.
Plasma was obtained from peripheral blood of healthy volunteers, patients and mouse following centrifugation at 1500×g for 10 min at room temperature. Paws were collected and immediately transferred to liquid nitrogen prior to homogenization in 1 ml ice cold MeOH and homogenized using a glass dounce. All samples for LC-MS/MS-based profiling were extracted using solid-phase extraction columns as in Walker, M. E., Souza, P. R., Colas, R. A. & Dalli, J. “13-Series resolvins mediate the leukocyte-platelet actions of atorvastatin and pravastatin in inflammatory arthritis.” FASEB J 31, 3636-3648 (2017), the contents of which are incorporated herein by reference. Prior to sample extraction, deuterated internal standards, representing each region in the chromatographic analysis (500 pg each) were added to facilitate quantification. Samples were kept at −20° C. for a minimum of 45 min to allow protein precipitation. Supernatants were subjected to solid phase extraction, methyl formate fraction collected, brought to dryness and suspended in phase (methanol/water, 1:1, vol/vol) for injection on a Shimadzu LC-20AD HPLC and a Shimadzu SIL-20AC autoinjector, paired with a QTrap 5500 or QTrap 6500 plus (Sciex). […]

[2] = system: inflammatory arthritis in mice; test: Inflammatory arthritis in mice treated with MTX plus L002 or MTX plus SB202190; assay type: in vivo; settings: for anti-arthritic actions of MTX: MTX 25 mg/kg plus inhibitor 20 mg/kg i.p. days 3, 5 and 7; for weight loss, a marker of disease activity / joint inflammation / joint concentrations of LTB4 / joint damage / ability of MTX to regulate neutrophil trafficking to the inflamed joint: MTX plus inhibitor 20 mg/kg; for joint inflammation: 26-point clinical score; for joint concentrations of LTB4: day 8, LC-MS/MS; for joint damage: knee histology, day 8; for ability of MTX to regulate neutrophil trafficking to the inflamed joint: paws, day 8, flow cytometry
Source text: as §1
Plasma was obtained from peripheral blood of healthy volunteers, patients and mouse following centrifugation at 1500×g for 10 min at room temperature. Paws were collected and immediately transferred to liquid nitrogen prior to homogenization in 1 ml ice cold MeOH and homogenized using a glass dounce. All samples for LC-MS/MS-based profiling were extracted using solid-phase extraction columns as in Walker, M. E., Souza, P. R., Colas, R. A. & Dalli, J. “13-Series resolvins mediate the leukocyte-platelet actions of atorvastatin and pravastatin in inflammatory arthritis.” FASEB J 31, 3636-3648 (2017), the contents of which are incorporated herein by reference. Prior to sample extraction, deuterated internal standards, representing each region in the chromatographic analysis (500 pg each) were added to facilitate quantification. Samples were kept at −20° C. for a minimum of 45 min to allow protein precipitation. Supernatants were subjected to solid phase extraction, methyl formate fraction collected, brought to dryness and suspended in phase (methanol/water, 1:1, vol/vol) for injection on a Shimadzu LC-20AD HPLC and a Shimadzu SIL-20AC autoinjector, paired with a QTrap 5500 or QTrap 6500 plus (Sciex). An Agilent Poroshell 120 EC-C18 column (100 mm×4.6 mm×2.7 μm) was kept at 50° C. and mediators eluted using a mobile phase consisting of methanol/water/acetic acid of 20:80:0.01 (vol/vol/vol) that was ramped to 50:50:0.01 (vol/vol/vol) over 0.5 min and then to 80:20:0.01 (vol/vol/vol) from 2 min to 11 min, maintained till 14.5 min and then rapidly ramped to 98:2:0.01 (vol/vol/vol) for the next 0.1 min. This was subsequently maintained at 98:2:0.01 (vol/vol/vol) for 5.4 min, and the flow rate was maintained at 0.5 ml/min. QTrap 5500 or QTrap 6500 plus were operated using a multiple reaction monitoring method as in Walker, M. E., Souza, P. R., Colas, R. A. & Dalli, J. “13-Series resolvins mediate the leukocyte-platelet actions of atorvastatin and pravastatin in inflammatory arthritis.” FASEB J 31, 3636-3648 (2017), the contents of which are incorporated herein by reference. […]

[3] = known side effect; cited from earlier work

Structure (SMILES) | MTX-induced upregulation of SPM [1] | concentrations of several mediators including PD1, MaR2n-3 DPA and RvD1 [1] | anti-arthritic actions of MTX [2] | weight loss, a marker of disease activity [2] | joint inflammation [2] | joint concentrations of LTB4 [2] | joint damage [2] | ability of MTX to regulate neutrophil trafficking to the inflamed joint [2] | High blood pressure, share of people [3]
COc1ccc(S(=O)(=O)ON=C2C=C(C)C(=O)C(C)=C2)cc1 [L002] | blocking | decreasing | reversed | increase | increase | increase | increase | reversed | –
Cc1oncc1C(=O)Nc1ccc(C(F)(F)F)cc1 [Leflunomide] | – | – | – | – | – | – | – | – | up to 10% of people
Oc1ccc(-c2nc(-c3ccncc3)c(-c3ccc(F)cc3)[nH]2)cc1 [SB202190] | blocking | decreasing | reversed | increase | increase | increase | increase | reversed | –

Reference: patent US12681015B2, “Methods for predicting patient response to DMARDs” (Queen Mary University of London, priority 2019, dated 2026)
